Measured values taken from article PMC9516332 (Frontiers in Oncology, 2022).

How the values were obtained:
Assay in all cases: Kinase panel profiling at 1 µmol/L (MSA or IMAP), percentage inhibition
Assay type in all cases: biochemical
[1] = target: T1, panel of 255 wild-type kinases (Homo sapiens, UniProt Q14164); settings: kinase IKKε; 1 µmol/L single concentration; read-out: %-inhibition at 1 µmol/L, IKKε
T1 sequence (Q14164 1-716): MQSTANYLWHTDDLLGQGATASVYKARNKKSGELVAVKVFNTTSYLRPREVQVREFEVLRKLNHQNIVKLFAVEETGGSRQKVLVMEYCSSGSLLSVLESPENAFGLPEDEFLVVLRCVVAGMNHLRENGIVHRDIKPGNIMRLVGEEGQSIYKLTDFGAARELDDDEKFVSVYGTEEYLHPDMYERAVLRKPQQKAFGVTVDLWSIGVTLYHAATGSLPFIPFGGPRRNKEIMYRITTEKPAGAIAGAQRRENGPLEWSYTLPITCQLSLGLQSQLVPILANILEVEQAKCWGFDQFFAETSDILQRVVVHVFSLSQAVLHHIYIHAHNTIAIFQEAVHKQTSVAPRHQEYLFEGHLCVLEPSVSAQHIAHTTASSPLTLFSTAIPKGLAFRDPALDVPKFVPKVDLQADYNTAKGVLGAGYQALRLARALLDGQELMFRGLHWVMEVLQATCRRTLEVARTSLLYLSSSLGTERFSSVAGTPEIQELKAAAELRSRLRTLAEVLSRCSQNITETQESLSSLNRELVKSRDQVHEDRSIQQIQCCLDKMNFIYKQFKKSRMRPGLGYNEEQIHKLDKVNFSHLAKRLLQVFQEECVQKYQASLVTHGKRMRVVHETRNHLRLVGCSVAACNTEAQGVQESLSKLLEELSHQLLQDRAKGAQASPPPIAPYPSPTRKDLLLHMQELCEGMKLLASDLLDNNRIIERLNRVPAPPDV

[2] = target: panel of 255 wild-type kinases (Homo sapiens, UniProt Q9Y2H1); settings: NDR2; 1 µmol/L single concentration; read-out: %-inhibition, NDR2
[3] = target: T2, panel of 255 wild-type kinases (Homo sapiens, UniProt P54760); settings: kinase EPHB4; 1 µmol/L single concentration; read-out: %-inhibition at 1 µmol/L, EPHB4
T2 sequence (P54760 16-987): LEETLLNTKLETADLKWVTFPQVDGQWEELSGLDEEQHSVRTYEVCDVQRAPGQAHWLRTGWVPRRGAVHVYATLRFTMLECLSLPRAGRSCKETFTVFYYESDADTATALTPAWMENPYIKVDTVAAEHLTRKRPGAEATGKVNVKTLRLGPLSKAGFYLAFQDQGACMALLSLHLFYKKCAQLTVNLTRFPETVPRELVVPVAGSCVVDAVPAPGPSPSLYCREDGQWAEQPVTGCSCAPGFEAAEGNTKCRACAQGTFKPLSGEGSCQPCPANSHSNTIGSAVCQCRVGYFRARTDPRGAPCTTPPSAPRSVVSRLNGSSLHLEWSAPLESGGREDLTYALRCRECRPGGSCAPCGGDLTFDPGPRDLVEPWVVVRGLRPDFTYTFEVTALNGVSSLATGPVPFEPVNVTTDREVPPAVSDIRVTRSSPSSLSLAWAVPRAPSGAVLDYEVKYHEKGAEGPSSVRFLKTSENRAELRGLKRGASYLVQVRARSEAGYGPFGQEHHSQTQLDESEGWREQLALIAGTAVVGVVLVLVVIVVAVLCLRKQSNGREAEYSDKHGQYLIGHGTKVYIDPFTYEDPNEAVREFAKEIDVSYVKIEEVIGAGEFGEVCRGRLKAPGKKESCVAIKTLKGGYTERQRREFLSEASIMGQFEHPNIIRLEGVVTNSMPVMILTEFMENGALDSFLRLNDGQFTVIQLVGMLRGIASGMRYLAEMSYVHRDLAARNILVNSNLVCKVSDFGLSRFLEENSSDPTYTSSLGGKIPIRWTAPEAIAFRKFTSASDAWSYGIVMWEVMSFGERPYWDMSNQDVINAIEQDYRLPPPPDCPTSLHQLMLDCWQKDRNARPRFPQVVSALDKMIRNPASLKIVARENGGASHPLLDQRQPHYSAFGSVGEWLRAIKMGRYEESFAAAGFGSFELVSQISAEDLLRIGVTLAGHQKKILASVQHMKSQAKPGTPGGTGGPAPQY

[4] = target: T3, panel of 255 wild-type kinases (Homo sapiens, UniProt O14920); settings: kinase IKKβ; 1 µmol/L single concentration; read-out: %-inhibition at 1 µmol/L, IKKβ
T3 sequence (O14920 1-756): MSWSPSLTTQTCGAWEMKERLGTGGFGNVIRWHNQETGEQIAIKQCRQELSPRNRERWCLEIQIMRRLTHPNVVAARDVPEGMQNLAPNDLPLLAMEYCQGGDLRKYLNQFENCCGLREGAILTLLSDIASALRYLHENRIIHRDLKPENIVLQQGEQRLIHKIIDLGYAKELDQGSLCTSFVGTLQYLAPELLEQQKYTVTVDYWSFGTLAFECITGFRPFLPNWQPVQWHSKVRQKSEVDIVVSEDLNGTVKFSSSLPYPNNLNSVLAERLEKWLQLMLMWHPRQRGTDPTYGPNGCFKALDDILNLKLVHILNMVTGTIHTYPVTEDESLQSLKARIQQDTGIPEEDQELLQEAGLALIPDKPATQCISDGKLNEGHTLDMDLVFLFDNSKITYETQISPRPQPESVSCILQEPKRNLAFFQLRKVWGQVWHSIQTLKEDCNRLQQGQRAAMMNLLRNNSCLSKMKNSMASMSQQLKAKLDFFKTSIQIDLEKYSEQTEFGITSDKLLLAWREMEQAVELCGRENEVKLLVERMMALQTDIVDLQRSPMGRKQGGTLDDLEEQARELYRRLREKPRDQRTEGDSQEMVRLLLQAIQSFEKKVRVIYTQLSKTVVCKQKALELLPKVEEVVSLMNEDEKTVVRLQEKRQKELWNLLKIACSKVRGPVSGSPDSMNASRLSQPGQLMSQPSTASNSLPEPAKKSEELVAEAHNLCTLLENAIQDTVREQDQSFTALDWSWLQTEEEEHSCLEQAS

[5] = test system: panel of 255 wild-type kinases; settings: for number of the 255 profiled kinases inhibited by more than 50%: 1 µmol/L inhibitor; for %-inhibition at 1 µmol/L, FYN [isoform b]: kinase FYN [isoform b]; for %-inhibition at 1 µmol/L, FYN [isoform b] / %-inhibition at 1 µmol/L, LYNb / %-inhibition at 1 µmol/L, PKCβ2 / %-inhibition at 1 µmol/L, SRM: 1 µmol/L single concentration; for %-inhibition at 1 µmol/L, LYNb: kinase LYNb; for %-inhibition at 1 µmol/L, PKCβ2: kinase PKCβ2; for %-inhibition at 1 µmol/L, SRM: kinase SRM

CO[C@]1(C(=O)N[C@@H](C)c2ccc(-n3cc(F)cn3)nc2)CC[C@H](c2nc(C)cc(Nc3cc(C)[nH]n3)n2)CC1 [pralsetinib]
inhibition at 1 µM [1]: -5% | inhibition at 1 µM [2]: 0.23% | inhibition at 1 µM [3]: 56% | inhibition at 1 µM [4]: 32% | number of the 255 profiled kinases inhibited by more than 50% [5]: 71 | %-inhibition at 1 µmol/L, FYN [isoform b] [5]: 30% | %-inhibition at 1 µmol/L, LYNb [5]: 89% | %-inhibition at 1 µmol/L, PKCβ2 [5]: -1.78% | %-inhibition at 1 µmol/L, SRM [5]: 13%

CCn1c(=O)c(-c2cc(NC(=O)Nc3ccccc3)c(F)cc2Br)cc2cnc(NC)cc21 [ripretinib]
inhibition at 1 µM [1]: -5% | inhibition at 1 µM [2]: 2.69% | inhibition at 1 µM [3]: 90% | inhibition at 1 µM [4]: 21% | %-inhibition at 1 µmol/L, FYN [isoform b] [5]: 33% | %-inhibition at 1 µmol/L, LYNb [5]: 85% | %-inhibition at 1 µmol/L, PKCβ2 [5]: -0.488% | %-inhibition at 1 µmol/L, SRM [5]: 32%

COc1ccc(CN2C3CC2CN(c2ccc(-c4cc(OCC(C)(C)O)cn5ncc(C#N)c45)cn2)C3)cn1 [selpercatinib]
inhibition at 1 µM [1]: 20% | inhibition at 1 µM [2]: -4.53% | inhibition at 1 µM [3]: 73% | inhibition at 1 µM [4]: -2.15% | number of the 255 profiled kinases inhibited by more than 50% [5]: 46 | %-inhibition at 1 µmol/L, FYN [isoform b] [5]: 10% | %-inhibition at 1 µmol/L, LYNb [5]: 52% | %-inhibition at 1 µmol/L, PKCβ2 [5]: -1.06% | %-inhibition at 1 µmol/L, SRM [5]: -1.55%

Cn1cnc2c(F)c(Nc3ccc(Br)cc3Cl)c(C(=O)NOCCO)cc21 [selumetinib]
inhibition at 1 µM [1]: -5.67% | inhibition at 1 µM [2]: -3.24% | inhibition at 1 µM [3]: 0.674% | inhibition at 1 µM [4]: 1.34% | %-inhibition at 1 µmol/L, FYN [isoform b] [5]: -1.85% | %-inhibition at 1 µmol/L, LYNb [5]: 7% | %-inhibition at 1 µmol/L, PKCβ2 [5]: -2% | %-inhibition at 1 µmol/L, SRM [5]: -1.41%

Cc1cc(Nc2ncnc3ccc(NC4=NC(C)(C)CO4)cc23)ccc1Oc1ccn2ncnc2c1 [tucatinib]
inhibition at 1 µM [1]: -2.62% | inhibition at 1 µM [2]: -0.504% | inhibition at 1 µM [3]: -0.489% | inhibition at 1 µM [4]: 1% | %-inhibition at 1 µmol/L, FYN [isoform b] [5]: -1.06% | %-inhibition at 1 µmol/L, LYNb [5]: 6% | %-inhibition at 1 µmol/L, PKCβ2 [5]: -1.5% | %-inhibition at 1 µmol/L, SRM [5]: 2.77%

C=CC(=O)N1CCC([C@@H]2CCNc3c(C(N)=O)c(-c4ccc(Oc5ccccc5)cc4)nn32)CC1 [zanubrutinib]
inhibition at 1 µM [1]: 6% | inhibition at 1 µM [2]: 0.505% | inhibition at 1 µM [3]: -2.82% | inhibition at 1 µM [4]: -0.69% | %-inhibition at 1 µmol/L, FYN [isoform b] [5]: 22% | %-inhibition at 1 µmol/L, LYNb [5]: 55% | %-inhibition at 1 µmol/L, PKCβ2 [5]: -1.66% | %-inhibition at 1 µmol/L, SRM [5]: 58%
